Patent US20230226105A1, “METHODS AND COMPOSITIONS FOR TREATING CANCER” (ReversPAH LLC, priority 2021, published 2023)

Key:
[1] = Stability of TTM filled in enteric capsules exposed to stomach acid / simulated stomach acid; format: physicochemical; conditions: additional enteric coatings applied; after one hour
Description: The present inventors have determined that while the designed disintegration properties of an enteric capsule remain stable for 2 hours and the designed enteric capsule may have a diffusion rate below 7.5% in the first two hours, the inventors research confirmed in fact stomach acid or moisture from the stomach does enter the capsule, and the enteric interior capsule walls become wet, thereby subjecting the TTM to the acid or moisture, causing rapid degradation of the enteric capsule from the chemical reaction with the moistened TTM.
The present inventors have determined that the TTM releases H2S gas when a small amount of stomach acid or moisture enters the enteric capsule, not only causing degradation of the TTM, but also the moisture seeping through the capsule causes TTM to release H2S as part of the degradation process, which then comes in contact with the inside of the enteric capsule. This dissolves the enteric capsule from inside the capsule and leads to a catastrophic capsule failure within 15 to 30 minutes.
This is not a preferred solution as the TTM is getting wet inside the capsule and degrading, creating the problem of not knowing how much TTM will be left to be absorbed by the patient after the tablet leaves the stomach. Such a reaction reduces the amount of drug being available to the patient, thereby reducing the drugs intended effect due to less TTM available. […]

[2] = Solubility of crushed and screened TTM particles in water; format: physicochemical; conditions: particles after 70-mesh screen
Description: The present inventors undertook a study to determine the size of the TTM particles after a crushing and screening process using a 70-mesh screen that would allow a maximum particle size of 210 micrometers. The size range was as follows: 10% under 13.3 μm; 50% under 44.5 μm; 90% under 122 μm.
This is not unsurprising, as saturation will occur in fluids as a known principle and does illustrate enough fluid is required to be available to dissolve the administered TTM to create optimal bioavailability. Further, larger particles with […] surface area would be expected to remain after the smaller particles dissolve.

In the case of `[SH-].[SH-].[S]=[Mo]=[S]` [TTM, tetrathiomolybdate], the “TTM leakage from enteric capsule with additional enteric coatings” value [1] is reported as “still leaking out”, the solubility in water ([2]; 60 mg in 300 ml water) is reported as “dissolved fully over time” and the solubility in water ([2]; 160 mg in 300 ml of water) is reported as “did not fully dissolve”.
